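These data come from cells grown in 96-well plates and exposed to compound for 48 hours at five concentrations. The concentration for 50% growth inhibition is given as GI50.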 Activity calls are given as the source filed them. No stated cut-off is given here; in the data, active = GI50 up to about 1.1 µM and inactive = higher.
Experiments:
Experiment in all cases: growth of human tumour cells (NCI), 48 h
HOP-62 = system: HOP-62
UO-31 = system: UO-31
EKVX = system: EKVX
M14 = system: M14
T47D = system: T47D
UACC-62 = system: UACC-62
HT-29 = system: HT-29
RXF 393 = system: RXF 393
SF-539 = system: SF-539
Malme-3M = system: Malme-3M
NCI-H522 = system: NCI-H522
SW-620 = system: SW-620
OVCAR-8 = system: OVCAR-8
BT-549 = system: BT-549
MDA-MB-231 = system: MDA-MB-231
HCC 2998 = system: HCC 2998
OVCAR-5 = system: OVCAR-5
CCRF-CEM = system: CCRF-CEM
MDA-N = system: MDA-N
HCT-15 = system: HCT-15
A498 = system: A498
NCI-H460 = system: NCI-H460
HCT-116 = system: HCT-116
DU-145 = system: DU-145
ACHN = system: ACHN
U-251 = system: U-251
NCI-H23 = system: NCI-H23
UACC-257 = system: UACC-257
LOX IMVI = system: LOX IMVI
MOLT-4 = system: MOLT-4
SK-MEL-5 = system: SK-MEL-5
Hs-578T = system: Hs-578T
A549 = system: A549
MDA-MB-435 = system: MDA-MB-435
RPMI-8226 = system: RPMI-8226
SNB-19 = system: SNB-19
NCI/ADR-RES = system: NCI/ADR-RES
NCI-H226 = system: NCI-H226
PC-3 = system: PC-3
786-0 = system: 786-0
SF-268 = system: SF-268
OVCAR-4 = system: OVCAR-4
HL-60 = system: HL-60
MCF7 = system: MCF7
COLO 205 = system: COLO 205
TK-10 = system: TK-10
SK-OV-3 = system: SK-OV-3
IGROV-1 = system: IGROV-1
OVCAR-3 = system: OVCAR-3
SK-MEL-28 = system: SK-MEL-28
HOP-92 = system: HOP-92
SK-MEL-2 = system: SK-MEL-2
SN12C = system: SN12C
CAKI-1 = system: CAKI-1
K562 = system: K562
KM12 = system: KM12
SF-295 = system: SF-295
SNB-75 = system: SNB-75

For `C=CCCCCOC1C=CC(OC(C)=O)C(COC(C)=O)O1` (configuration not stated), the GI50 (HOP-62) was > 100 µM (inactive), the GI50 (UO-31) was > 100 µM (inactive) and the GI50 (EKVX) was > 100 µM (inactive). The GI50 (M14) was > 100 µM (inactive), the GI50 (T47D) was > 100 µM (inactive) and the GI50 (UACC-62) was > 100 µM (inactive). The GI50 (HT-29) was > 100 µM (inactive), the GI50 (RXF 393) was > 100 µM (inactive) and the GI50 (SF-539) was > 100 µM (inactive). The GI50 (Malme-3M) was > 100 µM (inactive), the GI50 (NCI-H522) was > 100 µM (inactive) and the GI50 (SW-620) was > 100 µM (inactive). For the same compound, the GI50 (OVCAR-8) was > 100 µM (inactive), the GI50 (BT-549) was > 100 µM (inactive) and the GI50 (MDA-MB-231) was > 100 µM (inactive). For the same compound, the GI50 (HCC 2998) was > 100 µM (inactive), the GI50 (OVCAR-5) was > 100 µM (inactive) and the GI50 (CCRF-CEM) was > 100 µM (inactive). The GI50 (MDA-N) was > 100 µM (inactive), the GI50 (HCT-15) was greater than 100 µM and the GI50 (A498) was > 100 µM (inactive). For the same compound, the GI50 (NCI-H460) was > 100 µM (inactive), the GI50 (HCT-116) was > 100 µM (inactive) and the GI50 (DU-145) was > 100 µM (inactive). The GI50 (ACHN) was > 100 µM (inactive), the GI50 (U-251) was > 100 µM (inactive) and the GI50 (NCI-H23) was > 100 µM (inactive). For the same compound, the GI50 (UACC-257) was > 100 µM (inactive), the GI50 (LOX IMVI) was > 100 µM (inactive) and the GI50 (MOLT-4) was > 100 µM (inactive). For the same compound, the GI50 (SK-MEL-5) was > 100 µM (inactive), the GI50 (Hs-578T) was 0.324 µM (active) and the GI50 (A549) was > 100 µM (inactive). For the same compound, the GI50 (MDA-MB-435) was > 100 µM (inactive), the GI50 (RPMI-8226) was > 100 µM (inactive) and the GI50 (SNB-19) was > 100 µM (inactive). For the same compound, the GI50 (NCI/ADR-RES) was > 100 µM (inactive), the GI50 (NCI-H226) was > 100 µM (inactive) and the GI50 (PC-3) was > 100 µM (inactive). For the same compound, the GI50 (786-0) was > 100 µM (inactive), the GI50 (SF-268) was > 100 µM (inactive) and the GI50 (OVCAR-4) was > 100 µM (inactive). The GI50 (HL-60) was > 100 µM (inactive), the GI50 (MCF7) was > 100 µM (inactive) and the GI50 (COLO 205) was > 100 µM (inactive). For the same compound, the GI50 (TK-10) was > 100 µM (inactive), the GI50 (SK-OV-3) was > 100 µM (inactive) and the GI50 (IGROV-1) was > 100 µM (inactive). The GI50 (OVCAR-3) was > 100 µM (inactive), the GI50 (SK-MEL-28) was > 100 µM (inactive) and the GI50 (HOP-92) was > 100 µM (inactive). The GI50 (SK-MEL-2) was > 100 µM (inactive), the GI50 (SN12C) was > 100 µM (inactive) and the GI50 (CAKI-1) was > 100 µM (inactive). The GI50 (K562) was > 10 µM (inactive), the GI50 (KM12) was > 100 µM (inactive) and the GI50 (SF-295) was > 100 µM (inactive).

With `CN(C)N1C(=O)c2ccccc2NC1c1ccccc1` (configuration not stated) the GI50 (HOP-62) was > 100 µM (inactive), the GI50 (UO-31) was > 100 µM (inactive) and the GI50 (EKVX) was > 100 µM (inactive). For the same compound, the GI50 (M14) was > 100 µM (inactive), the GI50 (T47D) was > 100 µM (inactive) and the GI50 (UACC-62) was > 100 µM (inactive). For the same compound, the GI50 (HT-29) was > 100 µM (inactive), the GI50 (SF-539) was > 100 µM (inactive) and the GI50 (Malme-3M) was > 100 µM (inactive). The GI50 (NCI-H522) was > 100 µM (inactive), the GI50 (SW-620) was > 100 µM (inactive) and the GI50 (OVCAR-8) was > 100 µM (inactive). For the same compound, the GI50 (BT-549) was > 100 µM (inactive), the GI50 (MDA-MB-231) was > 100 µM (inactive) and the GI50 (HCC 2998) was > 100 µM (inactive). For the same compound, the GI50 (OVCAR-5) was > 100 µM (inactive), the GI50 (CCRF-CEM) was > 100 µM (inactive) and the GI50 (MDA-N) was > 100 µM (inactive). The GI50 (HCT-15) was greater than 100 µM, the GI50 (A498) was > 100 µM (inactive) and the GI50 (NCI-H460) was > 100 µM (inactive). For the same compound, the GI50 (HCT-116) was > 100 µM (inactive), the GI50 (DU-145) was > 100 µM (inactive) and the GI50 (ACHN) was > 100 µM (inactive). For the same compound, the GI50 (U-251) was > 100 µM (inactive), the GI50 (NCI-H23) was > 100 µM (inactive) and the GI50 (UACC-257) was > 100 µM (inactive). The GI50 (LOX IMVI) was > 100 µM (inactive), the GI50 (MOLT-4) was > 100 µM (inactive) and the GI50 (SK-MEL-5) was > 100 µM (inactive). The GI50 (Hs-578T) was > 100 µM (inactive), the GI50 (A549) was > 100 µM (inactive) and the GI50 (MDA-MB-435) was > 100 µM (inactive). For the same compound, the GI50 (RPMI-8226) was > 100 µM (inactive), the GI50 (SNB-19) was > 100 µM (inactive) and the GI50 (NCI/ADR-RES) was > 100 µM (inactive). For the same compound, the GI50 (NCI-H226) was > 100 µM (inactive), the GI50 (PC-3) was > 100 µM (inactive) and the GI50 (786-0) was > 100 µM (inactive). The GI50 (SF-268) was > 100 µM (inactive), the GI50 (OVCAR-4) was > 100 µM (inactive) and the GI50 (MCF7) was > 100 µM (inactive). The GI50 (COLO 205) was > 100 µM (inactive), the GI50 (SNB-75) was > 100 µM (inactive) and the GI50 (TK-10) was > 100 µM (inactive). For the same compound, the GI50 (SK-OV-3) was > 100 µM (inactive), the GI50 (IGROV-1) was > 100 µM (inactive) and the GI50 (OVCAR-3) was > 100 µM (inactive). The GI50 (SK-MEL-28) was > 100 µM (inactive), the GI50 (HOP-92) was > 100 µM (inactive) and the GI50 (SK-MEL-2) was > 100 µM (inactive). For the same compound, the GI50 (SN12C) was > 100 µM (inactive), the GI50 (CAKI-1) was > 100 µM (inactive) and the GI50 (KM12) was > 100 µM (inactive). For the same compound, the GI50 (SF-295) was > 100 µM (inactive).

For `Clc1ccc(OCc2nnc(CCCCCCCCc3nnc(COc4ccc(Cl)cc4Cl)n3Nc3ccccc3)n2Nc2ccccc2)c(Cl)c1`, the GI50 (HOP-62) was 3.02 µM (inactive), the GI50 (UO-31) was 11.8 µM (inactive) and the GI50 (EKVX) was 19 µM (inactive). For the same compound, the GI50 (M14) was 11.3 µM (inactive), the GI50 (T47D) was 6.53 µM (inactive) and the GI50 (UACC-62) was 1.47 µM (inactive). For the same compound, the GI50 (HT-29) was 13.8 µM (inactive), the GI50 (RXF 393) was 16.3 µM (inactive) and the GI50 (SF-539) was 11.4 µM (inactive). The GI50 (Malme-3M) was 19.5 µM (inactive), the GI50 (NCI-H522) was 8.75 µM (inactive) and the GI50 (SW-620) was 12.7 µM (inactive). For the same compound, the GI50 (OVCAR-8) was 17.4 µM (inactive), the GI50 (BT-549) was 17.9 µM (inactive) and the GI50 (MDA-MB-231) was 8.41 µM (inactive). The GI50 (HCC 2998) was 7.21 µM (inactive), the GI50 (OVCAR-5) was 9.23 µM (inactive) and the GI50 (MDA-N) was 9.93 µM (inactive). For the same compound, the GI50 (HCT-15) was 10.9 µM, the GI50 (A498) was 21.4 µM (inactive) and the GI50 (NCI-H460) was 4.15 µM (inactive). For the same compound, the GI50 (HCT-116) was 11.4 µM (inactive), the GI50 (DU-145) was 18.6 µM (inactive) and the GI50 (ACHN) was 2.44 µM (inactive). The GI50 (U-251) was 13.1 µM (inactive), the GI50 (NCI-H23) was 15.1 µM (inactive) and the GI50 (UACC-257) was 10.8 µM (inactive). For the same compound, the GI50 (LOX IMVI) was 19 µM (inactive), the GI50 (MOLT-4) was 22.7 µM (inactive) and the GI50 (SK-MEL-5) was 2.23 µM (inactive). The GI50 (Hs-578T) was 15.8 µM (inactive), the GI50 (A549) was 8.77 µM (inactive) and the GI50 (MDA-MB-435) was 5.97 µM (inactive). For the same compound, the GI50 (RPMI-8226) was 2.34 µM (inactive), the GI50 (SNB-19) was 17.7 µM (inactive) and the GI50 (NCI/ADR-RES) was 11.9 µM (inactive). For the same compound, the GI50 (NCI-H226) was 9.51 µM (inactive), the GI50 (PC-3) was 3.07 µM (inactive) and the GI50 (786-0) was 15.2 µM (inactive). For the same compound, the GI50 (SF-268) was 14.2 µM (inactive), the GI50 (OVCAR-4) was 8.51 µM (inactive) and the GI50 (MCF7) was 7.06 µM (inactive). The GI50 (COLO 205) was 1.5 µM (inactive), the GI50 (SNB-75) was 23 µM (inactive) and the GI50 (TK-10) was 16.8 µM (inactive). For the same compound, the GI50 (SK-OV-3) was 11.5 µM (inactive), the GI50 (IGROV-1) was 13 µM (inactive) and the GI50 (OVCAR-3) was 12 µM (inactive). For the same compound, the GI50 (SK-MEL-28) was 5.46 µM (inactive), the GI50 (HOP-92) was 17.4 µM (inactive) and the GI50 (SK-MEL-2) was 8.04 µM (inactive). For the same compound, the GI50 (SN12C) was 18.4 µM (inactive), the GI50 (CAKI-1) was 8.73 µM (inactive) and the GI50 (KM12) was 10.7 µM (inactive). For the same compound, the GI50 (SF-295) was 1.38 µM (inactive).

Source: ChEMBL document CHEMBL1201862, “PubChem BioAssay data set” (2004)
